What was measured:
[1] = blends, accelerated storage conditions
[2] = fumarate salt, crystalline powder; cited from earlier work

SMILES: OCCOCCN1CCN(C2=Nc3ccccc3Sc3ccccc32)CC1 [Quetiapine, 11-[4-[2-(2-hydroxyethoxy)ethyl]-1-piperazinyl]dibenzo[b,f][1,4]thiazepine]
- compatibility with tartaric acid [1]: significant compatibility problems
- solubility in water [2]: moderately soluble in water

Source: patent publication US20150231080A1, “PHARMACEUTICAL COMPOSITION COMPRISING AN ATYPICAL ANTIPSYCHOTIC AGENT AND METHOD FOR THE PREPARATION THEREOF” (PHARMATHEN S.A., priority 2012, published 2015)
